Laboratory results: US20240368131A1, “OXOINDOLINYL AMIDE DERIVATIVES FOR INHIBITING NLRP3 AND USES THEREOF” (VENTUS THERAPEUTICS U.S. INC., priority 2022, published 2024)

Tests used:
Assay type in all cases: cell-based
human NLRP3 [1] = molecular target: T1, human NLRP3 (Homo sapiens, UniProt Q96P20); experiment: Human Whole Blood (hWB) NLRP3 Assay (IL-1β MSD); conditions: LPS 1 μg/ml 4.5 h, ATP 30 min, class symbols
Experimental: Human whole blood was drawn from healthy volunteers after obtaining written informed consent. Heparin lithium coated tubes were used to collect blood from volunteers. Blood samples were distributed on 96 well plates using 90 μl per well. Priming was performed by adding 5 μl of LPS (O26:B6; Sigma L-2654) at a final concentration of 1 μg/ml for 4.5 hours in a humidified incubator with 37° C., 5% CO2. Thirty minutes prior to NLRP3 activation, 5 μl of a 20× compound solution or vehicle (2% DMSO) was added to each well and plates were incubated on a shaker (450 rpm) in a humidified incubator with 37° C., 5% CO2. Activation was then performed by adding 3.3 μl of a 31× ATP solution per well. At the end of the 30 minutes stimulation, the plates were centrifuged (800 g, 10 min, room temperature) and the plasma from each well was frozen at −80° C. IL-1β levels in the supernatant were analyzed using a mesoscale discovery assay (MSD K151TUK) according to the manufacturers' instructions.
hWB IL-1β Assay: A represents an IC50 value <0.3 μM; B represents an IC50 value ≥0.3 μM and <0.5 μM; C represents an IC50 value ≥0.5 μM and <1.0 μM; D represents an IC50 value >1.0 μM.

human NLRP3 [2] = molecular target: T1, human NLRP3; experiment: Human PBMC NLRP3 Assay (IL-1β release); set-up: Human PBMCs (Normal): iXCells Cat #10HU-003; host or cells: human PBMCs (normal donors), LPS-primed, nigericin-stimulated; conditions: human PBMCs
Experimental: Reagents: Human PBMCs (Normal): iXCells Cat #10HU-003; RPMI 1640 medium (ATCC modification): ThermoFisher Cat #A1049101 (Complete Media: 10% FBS, 1% Pen/Strep; Assay Media: 1% Pen/Strep; 75 cm^2 cell culture flask: Corning Cat #430641U; 96-well cell culture plates: VWR Cat #10062-900; LPS (E. coli 026:B6): Sigma Cat #L2654, stock 5 mg/mL in PBS; Nigericin sodium salt: Sigma Cat #N7143, stock 5 mg/mL (6.7 mM) in ethanol.
Cryopreserved PBMCs (10×10^6 cells/vial) were rapidly thawed in a 37° C. water bath for 2 min and transferred in 10 mL Complete Media. Cells were then centrifuged at 1200 RPM for 5 min, resuspended in 40 mL of Complete Media, transferred in a 75 cm^2 cell culture flask and incubated overnight at 37° C. with 5% CO2. The next day, PBMCs were centrifuged, resuspended in 30 mL Assay Media (˜3.3×10^5 cells/mL) and distributed at 100 μL/well in a 96-well cell culture plate. 50 μl of Assay Media containing 300 ng/ml of LPS was then added to each well except for the untreated control wells (50 μl Assay Media without LPS). Cells were then primed with LPS for 4 h at 37° C. with 5% CO2. A concentration response curve (CRC) was prepared of 500× test compound in 100% dimethyl sulfoxide (DMSO). The CRC was then diluted 1:25 in Assay Media and then further diluted 1:5 in Assay Media resulting in a final 4× CRC in 0.8% DMSO/Assay Media. 50 μL/well of 4× test compound CRC or vehicle (0.8% DMSO/Assay Media) was then transferred into each well and subsequently incubated for 30 min at 37° C. with 5% CO2. Cells were stimulated by adding 4 μL of 500 μM Nigericin, for 1 h at 37° C. with 5% CO2 Plates were then centrifuged at 1200 RPM for 5 min and 100 μl of the media was transferred to a clean 96-well storage plate and stored at −80° C. until analyzed. Cytokine measurements were performed using the mesoscale platform. Compounds were added 30 minutes before priming the cells with LPS when TNFα was required to be quantified in the cytokine panel to confirm selectivity.
Human PBMC NLRP3 Assay: A represents an IC50 value <0.3 μM; B represents an IC50 value ≥0.3 μM and <0.5 μM; C represents an IC50 value ≥0.5 μM and <1.0 μM; D represents an IC50 value >1.0 μM and <10 μM; E represents an IC50 value >10 μM.

mouse NLRP3 = molecular target: T2, mouse NLRP3 (Mus musculus, UniProt Q8R4B8); experiment: Mouse Whole Blood (mWB) NLRP3 Assay (IL-1β MSD); conditions: CD1 mouse whole blood, LPS 1 μg/mL 5 h, ATP 5 mM; class symbols
T2 construct: Blood was drawn from female CD1 mice (9 to 10 weeks) by cardiac puncture; from tissue; host or cells: whole blood of female CD1 mice, LPS-primed, ATP-stimulated
T2 sequence (Q8R4B8 whole entry): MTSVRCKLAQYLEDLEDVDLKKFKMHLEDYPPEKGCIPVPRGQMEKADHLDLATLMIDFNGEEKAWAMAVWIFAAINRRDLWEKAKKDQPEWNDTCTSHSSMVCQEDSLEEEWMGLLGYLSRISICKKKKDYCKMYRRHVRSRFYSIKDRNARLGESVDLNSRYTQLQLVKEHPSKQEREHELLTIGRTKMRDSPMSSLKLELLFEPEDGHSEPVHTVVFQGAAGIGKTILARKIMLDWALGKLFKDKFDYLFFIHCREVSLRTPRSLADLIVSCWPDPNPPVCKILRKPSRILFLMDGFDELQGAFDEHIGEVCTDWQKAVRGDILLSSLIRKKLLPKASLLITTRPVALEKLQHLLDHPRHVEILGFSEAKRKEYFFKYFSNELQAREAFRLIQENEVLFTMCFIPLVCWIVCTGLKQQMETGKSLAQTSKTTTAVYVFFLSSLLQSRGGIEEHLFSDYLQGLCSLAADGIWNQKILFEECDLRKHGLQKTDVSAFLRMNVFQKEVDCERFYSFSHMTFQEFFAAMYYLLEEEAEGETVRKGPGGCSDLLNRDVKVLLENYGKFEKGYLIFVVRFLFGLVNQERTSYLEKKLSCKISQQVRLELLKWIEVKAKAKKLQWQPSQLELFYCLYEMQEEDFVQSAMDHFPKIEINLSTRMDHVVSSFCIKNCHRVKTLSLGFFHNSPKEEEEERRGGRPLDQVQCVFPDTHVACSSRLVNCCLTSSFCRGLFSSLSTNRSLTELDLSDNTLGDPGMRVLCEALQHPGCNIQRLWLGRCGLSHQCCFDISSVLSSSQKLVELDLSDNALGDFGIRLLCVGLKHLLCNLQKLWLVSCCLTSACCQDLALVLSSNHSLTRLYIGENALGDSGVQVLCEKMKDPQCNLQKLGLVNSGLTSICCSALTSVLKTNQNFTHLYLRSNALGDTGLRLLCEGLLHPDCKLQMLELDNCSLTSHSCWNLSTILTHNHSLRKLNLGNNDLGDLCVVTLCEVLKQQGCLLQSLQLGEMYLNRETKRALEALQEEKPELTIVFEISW
Experimental: Reagents: The following reagents were used: blood collection tubes (Heparin); U-bottom 96-well tissue culture (Falcon 353077); HBSS for LPS, ATP and compound dilutions (Gibco 24020-117); and LPS, E. coli serotype 026:B6 (Sigma L-2654).
Mouse IL-1b MSD assay: Blood was drawn from female CD1 mice (9 to 10 weeks) by cardiac puncture. Blood was plated (135 μL) per well in 96-well U-bottom plates. 7.5 μL of 20× LPS (20 μg/mL, final concentration of 1 μg/mL) was added and mixed by gentle pipetting, and the mixture was incubated in a TC incubator for five hours. 7.5 μL of 20× compound or vehicle per well was added and mixed by gentle pipetting. Compounds were diluted 1/50 in HBSS to prepare a 20× dilution curve in 2% DMSO. The mixture was incubated for 30 minutes in a TC incubator with shaking (450 rpm). 5 μl of 31× ATP (155 mM, final concentration of 5 mM) was added and mixed by gentle pipetting. The mixture was incubated in a TC incubator for 30 minutes with shaking (450 rpm). The plate was centrifuged for 10 minutes at 800×g and ˜70 μL of plasma was removed. Plasma was frozen if required. Mouse IL-1b was analyzed with IL-1b MSD assay (K152TUK). […]
mWB IL-1β Assay: A represents an IC50 value <0.3 μM; B represents an IC50 value ≥0.3 μM and <0.5 μM; C represents an IC50 value ≥0.5 μM and <1.0 μM; D represents an IC50 value ≥1.0 μM.

[3] = LPS priming 4 h, nigericin stimulation 1 h, class symbols

T1 sequence (Q96P20 whole entry): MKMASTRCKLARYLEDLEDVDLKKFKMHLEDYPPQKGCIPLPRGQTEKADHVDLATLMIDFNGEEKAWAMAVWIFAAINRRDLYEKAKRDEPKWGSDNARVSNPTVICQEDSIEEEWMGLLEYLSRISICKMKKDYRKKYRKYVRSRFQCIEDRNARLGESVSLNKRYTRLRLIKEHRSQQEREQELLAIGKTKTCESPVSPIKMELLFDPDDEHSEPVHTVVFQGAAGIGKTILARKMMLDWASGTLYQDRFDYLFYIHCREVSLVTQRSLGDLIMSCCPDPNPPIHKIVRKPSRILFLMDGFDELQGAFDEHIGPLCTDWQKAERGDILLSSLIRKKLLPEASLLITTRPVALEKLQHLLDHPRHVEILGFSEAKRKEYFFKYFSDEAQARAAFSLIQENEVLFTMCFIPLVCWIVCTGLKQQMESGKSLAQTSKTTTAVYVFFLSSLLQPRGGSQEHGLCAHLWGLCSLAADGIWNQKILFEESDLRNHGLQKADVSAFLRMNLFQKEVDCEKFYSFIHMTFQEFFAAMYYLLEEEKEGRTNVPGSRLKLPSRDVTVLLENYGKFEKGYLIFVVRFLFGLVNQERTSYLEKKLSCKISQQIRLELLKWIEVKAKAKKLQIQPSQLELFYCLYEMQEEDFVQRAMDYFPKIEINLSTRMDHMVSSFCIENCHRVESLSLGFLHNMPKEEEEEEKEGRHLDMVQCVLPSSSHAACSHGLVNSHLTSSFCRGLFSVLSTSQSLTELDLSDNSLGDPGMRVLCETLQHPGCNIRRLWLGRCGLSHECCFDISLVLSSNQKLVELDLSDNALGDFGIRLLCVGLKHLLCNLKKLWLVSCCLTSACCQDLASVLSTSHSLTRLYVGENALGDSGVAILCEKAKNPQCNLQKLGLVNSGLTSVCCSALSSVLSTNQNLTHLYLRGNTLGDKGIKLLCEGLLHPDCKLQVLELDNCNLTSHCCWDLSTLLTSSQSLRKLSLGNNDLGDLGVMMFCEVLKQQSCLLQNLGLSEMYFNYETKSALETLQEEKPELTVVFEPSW

With `CC1(C)C(=O)N(CC(=O)NC2(CCC(=O)O)CCOC2)c2ccc(Br)cc21` (racemic) [Rac-3, 3-(3-(2-(5-bromo-3,3-dimethyl-2-oxoindolin-1-yl)acetamido)tetrahydrofuran-3-yl)propanoic acid] the IC50 (human NLRP3 [1]) was 500 to 1000 nM and the IC50 (human NLRP3 [2]; [3]) was < 300 nM.

For `C[C@@H](CC(=O)O)[C@@H](C)NC(=O)CN1C(=O)C(C)(C)c2c1ccc(C1CC1)c2F` (single isomer, unassigned) [Compound 58A*], the IC50 (human NLRP3 [1]) was 500 to 1000 nM and the IC50 (human NLRP3 [2]; [3]) was < 300 nM.

`C[C@@H](CC(=O)O)[C@H](NC(=O)CN1C(=O)C(C)(C)c2c1ccc(C1CC1)c2F)C1CC1` (single isomer, unassigned) [Compound 60A*] was tested, and the IC50 (mouse NLRP3) was < 300 nM, the IC50 (human NLRP3 [1]) was 500 to 1000 nM and the IC50 (human NLRP3 [2]; [3]) was < 300 nM.

For `CC1(C)C(=O)N(CC(=O)NCCCC(=O)O)c2ccc(Cl)cc21` [Compound 4, 4-(2-(5-chloro-3,3-dimethyl-2-oxoindolin-1-yl)acetamido)butanoic acid], the IC50 (human NLRP3 [1]) was > 1000 nM.

For `CC1(C)C(=O)N(CC(=O)N[C@@H]2CCCN(c3nnn[nH]3)C2)c2ccc(Br)cc21` [Compound 11A, (R)-N-(1-(1H-tetrazol-5-yl)piperidin-3-yl)-2-(5-bromo-3,3-dimethyl-2-oxoindolin-1-yl)acetamide], the IC50 (mouse NLRP3) was < 300 nM and the IC50 (human NLRP3 [1]) was > 1000 nM.

For `CC1(C)C(=O)N(CC(=O)NCCCC(=O)O)c2ccc(Br)c(F)c21` [Compound 21, 4-(2-(5-bromo-4-fluoro-3,3-dimethyl-2-oxoindolin-1-yl)acetamido)butanoic acid], the IC50 (human NLRP3 [1]) was < 300 nM and the IC50 (human NLRP3 [2]; [3]) was < 300 nM.

In the case of `CC1(C)C(=O)N(CC(=O)NCCCC(=O)O)c2ccc(I)cc21` [Compound 22, 4-(2-(5-iodo-3,3-dimethyl-2-oxoindolin-1-yl)acetamido)butanoic acid], the IC50 (human NLRP3 [1]) is reported as < 300 nM and the IC50 (human NLRP3 [2]; [3]) is reported as < 300 nM.

`CC1(C)C(=O)N(CC(=O)NCCCC(=O)O)c2c(F)cc(Br)cc21` [Compound 24, 4-(2-(5-bromo-7-fluoro-3,3-dimethyl-2-oxoindolin-1-yl)acetamido)butanoic acid] was tested, and the IC50 (mouse NLRP3) was < 300 nM, the IC50 (human NLRP3 [2]; [3]) was < 300 nM and the IC50 (human NLRP3 [2]; LPS priming, nigericin stimulation, numeric values of Tables C1-C4) was 20 nM.

`C[C@H]1C[C@@H](NC(=O)CN2C(=O)C(C)(C)c3cc(Br)cc(O)c32)CN(c2nnn[nH]2)C1` [Compound 26, 2-(5-bromo-7-hydroxy-3,3-dimethyl-2-oxoindolin-1-yl)-N-((3R,5S)-5-methyl-1-(1H-tetrazol-5-yl)piperidin-3-yl)acetamide] showed an IC50 (mouse NLRP3) of 500 to 1000 nM.

In the case of `CC1(C)C(=O)N(CC(=O)NCCCC(=O)O)c2c(O)cc(I)cc21` [Compound 28, 4-(2-(7-hydroxy-5-iodo-3,3-dimethyl-2-oxoindolin-1-yl)acetamido)butanoic acid], the IC50 (human NLRP3 [1]) is reported as > 1000 nM and the IC50 (human NLRP3 [2]; [3]) is reported as < 300 nM.

`CC1(C)C(=O)N(CC(=O)NCCCc2nnn[nH]2)c2c(O)cc(C3CC3)cc21` [Compound 29, N-(3-(1H-tetrazol-5-yl)propyl)-2-(5-cyclopropyl-7-hydroxy-3,3-dimethyl-2-oxoindolin-1-yl)acetamide] was tested, and the IC50 (human NLRP3 [1]) was > 1000 nM.

With `CN(CCCC(=O)O)C(=O)CN1C(=O)C(C)(C)c2cc(Br)cc(O)c21` [Compound 30, 4-(2-(5-bromo-7-hydroxy-3,3-dimethyl-2-oxoindolin-1-yl)-N-methylacetamido)butanoic acid] the IC50 (human NLRP3 [1]) was > 1000 nM and the IC50 (human NLRP3 [2]; [3]) was < 300 nM.

With `CC(C)(CCC(=O)O)NC(=O)CN1C(=O)C(C)(C)c2cc(Br)cc(O)c21` [Compound 31, 4-(2-(5-bromo-7-hydroxy-3,3-dimethyl-2-oxoindolin-1-yl)acetamido)-4-methylpentanoic acid] the IC50 (human NLRP3 [1]) was 500 to 1000 nM and the IC50 (human NLRP3 [2]; [3]) was < 300 nM.

In the case of `CC(C)(CCc1nnn[nH]1)NC(=O)CN1C(=O)C(C)(C)c2cc(Br)cc(O)c21` [Compound 32, 2-(5-bromo-7-hydroxy-3,3-dimethyl-2-oxoindolin-1-yl)-N-(2-methyl-4-(1H-tetrazol-5-yl)butan-2-yl)acetamide], the IC50 (human NLRP3 [1]) is reported as > 1000 nM.

For `CC1(C)C(=O)N(CC(=O)NCCCc2nnn[nH]2)c2c(O)cc(Br)cc21` [Compound 33, N-(3-(1H-tetrazol-5-yl)propyl)-2-(5-bromo-7-hydroxy-3,3-dimethyl-2-oxoindolin-1-yl)acetamide], the IC50 (human NLRP3 [1]) was > 1000 nM and the IC50 (human NLRP3 [2]; [3]) was < 300 nM.

With `CC1(C)C(=O)N(CC(=O)NCC2(CC(=O)O)CC2)c2c(O)cc(Br)cc21` [Compound 35, 2-(1-((2-(5-bromo-7-hydroxy-3,3-dimethyl-2-oxoindolin-1-yl)acetamido)methyl)cyclopropyl)acetic acid] the IC50 (human NLRP3 [1]) was > 1000 nM and the IC50 (human NLRP3 [2]; [3]) was < 300 nM.

For `C[C@@H](CCC(=O)O)NC(=O)CN1C(=O)C(C)(C)c2cc(Br)cc(O)c21` [Compound 41B, (S)-4-(2-(5-bromo-7-hydroxy-3,3-dimethyl-2-oxoindolin-1-yl)acetamido)pentanoic acid], the IC50 (human NLRP3 [1]) was > 1000 nM and the IC50 (human NLRP3 [2]; [3]) was < 300 nM.

`CC1(C)C(=O)N(CC(=O)NCCCC(=O)O)c2c(O)cc(Cl)cc21` [Compound 47, 4-(2-(5-chloro-7-hydroxy-3,3-dimethyl-2-oxoindolin-1-yl)acetamido)butanoic acid] gave an IC50 (human NLRP3 [1]) of 300 to 500 nM.

For `C[C@@H](CNC(=O)CN1C(=O)C(C)(C)c2c(F)c(C3CC3)cc(F)c21)CC(=O)O` [Compound 61A, (R)-4-(2-(5-cyclopropyl-4,7-difluoro-3,3-dimethyl-2-oxoindolin-1-yl)acetamido)-3-methylbutanoic acid], the IC50 (mouse NLRP3) was < 300 nM and the IC50 (human NLRP3 [1]) was 300 to 500 nM.

In the case of `C[C@H](CNC(=O)CN1C(=O)C(C)(C)c2c(F)c(C3CC3)cc(F)c21)CC(=O)O` [Compound 61B, (S)-4-(2-(5-cyclopropyl-4,7-difluoro-3,3-dimethyl-2-oxoindolin-1-yl)acetamido)-3-methylbutanoic acid], the IC50 (human NLRP3 [1]) is reported as 500 to 1000 nM.

With `CC1(C)C(=O)N(CC(=O)NC[C@H](F)CC(=O)O)c2c(F)cc(C3CC3)c(F)c21` [Compound 62A, (R)-4-(2-(5-cyclopropyl-4,7-difluoro-3,3-dimethyl-2-oxoindolin-1-yl)acetamido)-3-fluorobutanoic acid] the IC50 (mouse NLRP3) was < 300 nM and the IC50 (human NLRP3 [1]) was 300 to 500 nM.
